Data published in patent US20090227619A1, “Harmine derivatives, intermediates used in their preparations, preparation processes and use therefo” (priority 2003, published 2009).
Read-outs that look alike come from different tables or passages of the source.

Columns and labels:
[1] = system: HepG2; assay: In vitro cytotoxicity, IC50 by MTT method, HepG2; type: cell-based, human
Outline: (§1)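 MTT viability, 48 h exposure: cells 10^5/ml in RPMI1640 + 10% FBS, 37 °C/5% CO2; MTT 4 h, DMSO solubilisation, A490.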

[2] = system: PLA-801; assay: In vitro cytotoxicity, IC50 by MTT method, PLA-801; type: cell-based
Outline: as §1

[3] = system: Bel-7402; assay: In vitro cytotoxicity, IC50 by MTT method, Bel-7402; type: cell-based
Outline: as §1

[4] = system: BGC-823; assay: In vitro cytotoxicity, IC50 by MTT method, BGC-823; type: cell-based
Outline: as §1

[5] = system: Hela; assay: In vitro cytotoxicity, IC50 by MTT method, Hela; type: cell-based
Outline: as §1

[6] = system: Lovo; assay: In vitro cytotoxicity, IC50 by MTT method, Lovo; type: cell-based
Outline: as §1

[7] = system: NIH3T3; assay: In vitro cytotoxicity, IC50 by MTT method, NIH3T3; type: cell-based
Outline: as §1

[8] = system: CT-DNA; assay: DNA thermal denaturation, determination of ΔTm; type: binding; conditions: 20 uM compound, Tm of CT-DNA alone 61° C.
Outline: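 CT-DNA at 15 ug/ml in PE buffer (1 mM Na2HPO4, 0.1 mM EDTA, pH 7.6), heated at 0.5° C./min from 25 to 95° C. Tm taken as hyperchromic transition mid-point; ΔTm = Tm of drug-DNA complex minus Tm of DNA alone, mean of three runs.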

[9] = system: Lewis lung cancer;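 further: mice implanted subcutaneously in the axilla with Lewis lung tumor cells, treated starting the following day, killed roughly three weeks after implantation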
[10] = system: S180 sarcoma
[11] = system: Kunming mice; conditions: summary Table 34, compounds marked *, results [153] of the previous tests; in mg/kg; cited from earlier work
[12] = system: CT-DNA; assay: UV absorption spectrum method with CT-DNA; type: binding; conditions: CT-DNA 40 ug/ml, compound 20 uM, 37° C. for 2 h, OD at 260 nm
[13] = system: HepG2 cells; assay: FCM analysis of apoptosis of HepG2 cells; type: cell-based, human; conditions: FIG. 6
[14] = Homo sapiens, HepG2, MTT, read-out: IC50
[15] = Homo sapiens, Bel-7402, BeI7402, MTT, read-out: IC50
[16] = Homo sapiens, BGC-823, BGC823, MTT, read-out: IC50
[17] = Homo sapiens, Hela, MTT, read-out: IC50
[18] = Homo sapiens, Lovo, MTT, read-out: IC50
[19] = Mus musculus, NIH3T3, MTT, read-out: IC50
[20] = comparison table 43, in vivo, Lewis lung cancer
[21] = comparison table 43, in vivo, S180 sarcoma
[22] = Homo sapiens, HepG2 cell strain, read-out: IC50 HepG2
[23] = PLA-801 cell strain, read-out: IC50 PLA-801
[24] = Homo sapiens, Bel-7402, Bel7402 cell strain, read-out: IC50 Bel7402
[25] = Homo sapiens, BGC-823, BGC823 cell strain, read-out: IC50 BGC823
[26] = Homo sapiens, Hela cell strain, read-out: IC50 Hela
[27] = Homo sapiens, Lovo cell strain, read-out: IC50 Lovo
[28] = Mus musculus, NIH3T3 cell strain, read-out: IC50 NIH3T3

Row | SMILES | IC50 [1, 14] [µM] | IC50 ([2]; PLA-801, MTT, read-out: IC50) [µM] | IC50 [3, 15] [µM] | IC50 [4, 16] [µM] | IC50 [5, 17] [µM] | IC50 [6, 18] [µM] | IC50 [7, 19] [µM] | ΔTm ([8]; CT-DNA thermal denaturation) [°C] | Inhibition rate (%) Lewis cancer [9, 20] [%] | Inhibition rate (%) S180 sarcomata [10, 21] [%] | LD50 [11] | Influence on the UV absorption of DNA [12] | IC50 [2, 23] [µM] | also measured
1 | COc1ccc2c3ccnc(C)c3n(C)c2c1 [Compound 2, 7-methoxyl-1,9-dimethyl-β-carboline] | 20 | 30 | 60 | 50 | 10 | 40 | 40 | 5.3 | 38.1 | 32.1 | 28.92 | – | – | –
2 | CCn1c2cc(OC)ccc2c2ccnc(C)c21 [Compound 3, 7-methoxyl-9-ethyl-1-methyl-β-carboline] | – | – | – | – | – | – | – | 7.3 | – | – | 24.25 | reduce the UV absorption of DNA | – | IC50 ([1]; Homo sapiens, HepG2): 10 µM; IC50 [2]: 20 µM; IC50 ([3]; Homo sapiens, Bel-7402): 30 µM; IC50 ([4]; Homo sapiens, BGC-823): 50 µM; IC50 ([5]; Homo sapiens, HeLa): 20 µM; IC50 ([6]; Homo sapiens, LoVo): 170 µM; IC50 ([7]; Mus musculus, NIH3T3): 70 µM; Inhibition rate (%) Lewis cancer ([9]; mouse, in vivo): 42.0%; Inhibition rate (%) S180 sarcomata ([10]; mouse, in vivo): 37.6%
3 | CCCCn1c2cc(OC)ccc2c2ccnc(C)c21 [Compound 4, 7-methoxyl-9-n-butyl-1-methyl-β-carboline] | 60 | 110 | 60 | 70 | 30 | 90 | 40 | 6.7 | 44.0 | 40.9 | 26.45 | reduce the UV absorption of DNA | – | –
4 | COc1ccc2c3ccnc(C)c3n(Cc3ccccc3)c2c1 [Compound 6, 9-benzyl-7-methoxy-1-methyl-β-carboline] | 90 | 60 | 60 | 100 | 270 | 50 | 50 | 10.3 | 46.9 | 45.2 | 147.82 | reduce the UV absorption of DNA | – | ΔTm ([8]; CT-DNA 15 ug/ml, PE buffer pH 7.6): 10.3 °C
5 | COC(=O)c1cc2c3ccccc3n(C)c2cn1 [Compound 26, methyl 9-methyl-β-carboline-3-carboxylate] | – | – | – | – | – | – | – | – | 35.0 | 31.1 | 70.61 | – | 120 | IC50 [1, 22]: 120 µM; IC50 [3, 24]: 190 µM; IC50 [4, 25]: 180 µM; IC50 [5, 26]: 180 µM; IC50 [6, 27]: 180 µM; IC50 [7, 28]: 90 µM
6 | CCn1c2ccccc2c2cc(C(=O)OC)ncc21 [Compound 27, methyl 9-ethyl-β-carboline-3-carboxylate] | – | – | – | – | – | – | – | – | 30.5 | 29.0 | 95.06 | – | 290 | IC50 [1, 22]: 160 µM; IC50 [3, 24]: 530 µM; IC50 [4, 25]: 250 µM; IC50 [5, 26]: 210 µM; IC50 [6, 27]: 110 µM; IC50 [7, 28]: 130 µM; Anti-tumor activity compared with harmine (compound 1) ([9]; Lewis lung cancer in mice, among 22 compounds tested): a little worse than or equivalent to that of harmines
7 | CCOC(=O)c1cc2c3ccccc3n(Cc3c(F)c(F)c(F)c(F)c3F)c2c(C)n1 [Compound 60, ethyl 9-(2′,3′,4′,5′,6′-pentafluoro)benzyl-1-methyl-β-carboline-3-carboxylate] | – | – | – | – | – | – | – | – | – | – | – | – | 50 | IC50 ([1]; HepG2 cell strain, read-out: IC50 HepG2): 30 µM; IC50 ([3]; Bel7402 cell strain, read-out: IC50 Bel7402): 100 µM; IC50 ([4]; BGC823 cell strain, read-out: IC50 BGC823): 4 µM; IC50 ([5]; Hela cell strain, read-out: IC50 Hela): 20 µM; IC50 ([6]; Lovo cell strain, read-out: IC50 Lovo): 40 µM; IC50 ([7]; NIH3T3 cell strain, read-out: IC50 NIH3T3): 40 µM; Apoptosis of HepG2 cells (FCM analysis) [13]: apoptosis of HepG2 cells induced
